Laboratory results: ChEMBL document CHEMBL3611969, “The effect of complexation of 3-formylrifamycin SV macrocyclic ether derivatives with metal cations and small nitrogen-containing organic molecules on antibacterial activity against S. aureus and S. epidermidis” (Bioorg Med Chem Lett, 2015)
Converted amounts (≈) assume the structure as drawn.

Legend:
[1] = test system: Staphylococcus aureus; assay: Antibacterial activity against Staphylococcus aureus ATCC 6538 after 18 hrs by serial microdilution method; format: functional; conditions: ATCC 6538, 18 h
[2] = test system: Staphylococcus aureus; assay: Antibacterial activity against Staphylococcus aureus ATCC 4163 after 18 hrs by serial microdilution method; format: functional; conditions: ATCC 4163, 18 h
[3] = test system: Staphylococcus aureus; assay: Antibacterial activity against Staphylococcus aureus ATCC 25923 after 18 hrs by serial microdilution method; format: functional; conditions: ATCC 25923, 18 h
[4] = test system: Staphylococcus epidermidis; assay: Antibacterial activity against Staphylococcus epidermidis ATCC 12228 after 18 hrs by serial microdilution method; format: functional; conditions: ATCC 12228, 18 h
[5] = test system: Staphylococcus epidermidis; assay: Antibacterial activity against Staphylococcus epidermidis ATCC 49134 after 18 hrs by serial microdilution method; format: functional; conditions: ATCC 49134, 18 h
[6] = test system: Staphylococcus aureus; assay: Antibacterial activity against Staphylococcus aureus ATCC 6538 after 18 hrs by serial microdilution method in presence of isoniazid; format: functional; conditions: ATCC 6538, 18 h
[7] = test system: Staphylococcus aureus; assay: Antibacterial activity against Staphylococcus aureus ATCC 6538 after 18 hrs by serial microdilution method in presence of 2-chlorobenzylamine; format: functional; conditions: ATCC 6538, 18 h
[8] = test system: Staphylococcus aureus; assay: Antibacterial activity against Staphylococcus aureus ATCC 6538 after 18 hrs by serial microdilution method in presence of 4-fluorobenzylamine; format: functional; conditions: ATCC 6538, 18 h
[9] = test system: Staphylococcus aureus; assay: Antibacterial activity against Staphylococcus aureus ATCC 6538 after 18 hrs by serial microdilution method in presence of histamine; format: functional; conditions: ATCC 6538, 18 h
[10] = test system: Staphylococcus aureus; assay: Antibacterial activity against Staphylococcus aureus ATCC 4163 after 18 hrs by serial microdilution method in presence of 2-chlorobenzylamine; format: functional; conditions: ATCC 4163, 18 h
[11] = test system: Staphylococcus aureus; assay: Antibacterial activity against Staphylococcus aureus ATCC 4163 after 18 hrs by serial microdilution method in presence of 4-fluorobenzylamine; format: functional; conditions: ATCC 4163, 18 h
[12] = test system: Staphylococcus aureus; assay: Antibacterial activity against Staphylococcus aureus ATCC 4163 after 18 hrs by serial microdilution method in presence of isoniazid; format: functional; conditions: ATCC 4163, 18 h
[13] = test system: Staphylococcus aureus; assay: Antibacterial activity against Staphylococcus aureus ATCC 4163 after 18 hrs by serial microdilution method in presence of histamine; format: functional; conditions: ATCC 4163, 18 h
[14] = test system: Staphylococcus aureus; assay: Antibacterial activity against Staphylococcus aureus ATCC 25923 after 18 hrs by serial microdilution method in presence of 2-chlorobenzylamine; format: functional; conditions: ATCC 25923, 18 h
[15] = test system: Staphylococcus aureus; assay: Antibacterial activity against Staphylococcus aureus ATCC 25923 after 18 hrs by serial microdilution method in presence of 4-fluorobenzylamine; format: functional; conditions: ATCC 25923, 18 h
[16] = test system: Staphylococcus aureus; assay: Antibacterial activity against Staphylococcus aureus ATCC 25923 after 18 hrs by serial microdilution method in presence of isoniazid; format: functional; conditions: ATCC 25923, 18 h
[17] = test system: Staphylococcus aureus; assay: Antibacterial activity against Staphylococcus aureus ATCC 25923 after 18 hrs by serial microdilution method in presence of histamine; format: functional; conditions: ATCC 25923, 18 h
[18] = test system: Staphylococcus epidermidis; assay: Antibacterial activity against Staphylococcus epidermidis ATCC 12228 after 18 hrs by serial microdilution method in presence of 2-chlorobenzylamine; format: functional; conditions: ATCC 12228, 18 h
[19] = test system: Staphylococcus epidermidis; assay: Antibacterial activity against Staphylococcus epidermidis ATCC 12228 after 18 hrs by serial microdilution method in presence of 4-fluorobenzylamine; format: functional; conditions: ATCC 12228, 18 h
[20] = test system: Staphylococcus epidermidis; assay: Antibacterial activity against Staphylococcus epidermidis ATCC 12228 after 18 hrs by serial microdilution method in presence of isoniazid; format: functional; conditions: ATCC 12228, 18 h
[21] = test system: Staphylococcus epidermidis; assay: Antibacterial activity against Staphylococcus epidermidis ATCC 12228 after 18 hrs by serial microdilution method in presence of histamine; format: functional; conditions: ATCC 12228, 18 h
[22] = test system: Staphylococcus epidermidis; assay: Antibacterial activity against Staphylococcus epidermidis ATCC 49134 after 18 hrs by serial microdilution method in presence of 2-chlorobenzylamine; format: functional; conditions: ATCC 49134, 18 h
[23] = test system: Staphylococcus epidermidis; assay: Antibacterial activity against Staphylococcus epidermidis ATCC 49134 after 18 hrs by serial microdilution method in presence of 4-fluorobenzylamine; format: functional; conditions: ATCC 49134, 18 h
[24] = test system: Staphylococcus epidermidis; assay: Antibacterial activity against Staphylococcus epidermidis ATCC 49134 after 18 hrs by serial microdilution method in presence of isoniazid; format: functional; conditions: ATCC 49134, 18 h
[25] = test system: Staphylococcus epidermidis; assay: Antibacterial activity against Staphylococcus epidermidis ATCC 49134 after 18 hrs by serial microdilution method in presence of histamine; format: functional; conditions: ATCC 49134, 18 h
[26] = Octanol-water partition coefficient, log P of the compound by UV-vis method; format: physicochemical
[27] = Solubility of the compound in water at pH 7; format: physicochemical

For `CO[C@H]1/C=C/O[C@@]2(C)Oc3c(C)c(O)c4c(O)c(c(/C=N/N5CCN(C)CC5)c(O)c4c3C2=O)NC(=O)/C(C)=C\C=C\[C@H](C)[C@H](O)[C@@H](C)[C@@H](O)[C@@H](C)[C@H](OC(C)=O)[C@@H]1C` [RIFAMPIN], the MIC [1] was 0.016 µg/mL (≈ 0.0194 µM), the MIC [2] was 0.016 µg/mL (≈ 0.0194 µM) and the MIC [3] was 0.016 µg/mL (≈ 0.0194 µM). It also gave an MIC [4] of 0.008 µg/mL (≈ 0.00972 µM) and an MIC [5] of 0.008 µg/mL (≈ 0.00972 µM).
Work on `CO[C@H]1/C=C/O[C@@]2(C)Oc3c(C)c(O)c4c(O)c(c(CNc5ccc6c(c5)OCCOCCOCCOCCO6)c(O)c4c3C2=O)NC(=O)/C(C)=C\C=C\[C@H](C)[C@H](O)[C@@H](C)[C@@H](O)[C@@H](C)[C@H](OC(C)=O)[C@@H]1C` yielded an MIC [1] of 2 µg/mL (≈ 2.01 µM), an MIC [6] of 1 µg/mL and an MIC [7] of 0.5 µg/mL. It also gave an MIC [8] of 0.5 µg/mL, an MIC [9] of 0.125 µg/mL and an MIC [2] of 2 µg/mL (≈ 2.01 µM). For the same compound, the MIC [10] was 0.5 µg/mL, the MIC [11] was 0.5 µg/mL and the MIC [12] was 1 µg/mL. It also gave an MIC [13] of 0.125 µg/mL, an MIC [3] of 2 µg/mL (≈ 2.01 µM) and an MIC [14] of 0.5 µg/mL. It also gave an MIC [15] of 0.5 µg/mL, an MIC [16] of 1 µg/mL and an MIC [17] of 0.125 µg/mL. The MIC [4] was 0.5 µg/mL (≈ 0.503 µM), the MIC [18] was 0.25 µg/mL and the MIC [19] was 0.25 µg/mL. The MIC [20] was 0.25 µg/mL, the MIC [21] was 1.25 µg/mL and the MIC [5] was 0.5 µg/mL (≈ 0.503 µM). The MIC [22] was 0.25 µg/mL, the MIC [23] was 0.25 µg/mL and the MIC [24] was 0.25 µg/mL. The MIC [25] was 0.125 µg/mL and the logP [26] was 0.2.
`CO[C@H]1/C=C/O[C@@]2(C)Oc3c(C)c(O)c4c(O)c(c(CNc5ccc6c(c5)OCCOCCOc5ccccc5OCCOCCO6)c(O)c4c3C2=O)NC(=O)/C(C)=C\C=C\[C@H](C)[C@H](O)[C@@H](C)[C@@H](O)[C@@H](C)[C@H](OC(C)=O)[C@@H]1C` showed an MIC [1] of 1 µg/mL (≈ 0.921 µM), an MIC [6] of 1 µg/mL and an MIC [7] of 0.25 µg/mL. The MIC [8] was 0.25 µg/mL, the MIC [9] was 0.125 µg/mL and the MIC [2] was 2 µg/mL (≈ 1.84 µM). For the same compound, the MIC [10] was 0.25 µg/mL, the MIC [11] was 0.25 µg/mL and the MIC [12] was 1 µg/mL. The MIC [13] was 0.125 µg/mL, the MIC [3] was 2 µg/mL (≈ 1.84 µM) and the MIC [14] was 0.25 µg/mL. For the same compound, the MIC [15] was 0.25 µg/mL, the MIC [16] was 1 µg/mL and the MIC [17] was 0.125 µg/mL. For the same compound, the MIC [4] was 0.5 µg/mL (≈ 0.461 µM), the MIC [18] was 0.25 µg/mL and the MIC [19] was 0.25 µg/mL. The MIC [20] was 0.5 µg/mL, the MIC [21] was 1.25 µg/mL and the MIC [5] was 0.5 µg/mL (≈ 0.461 µM). For the same compound, the MIC [22] was 0.25 µg/mL, the MIC [23] was 0.25 µg/mL and the MIC [24] was 0.5 µg/mL. The MIC [25] was 0.125 µg/mL, the solubility [27] was < 50 µg/mL and the logP [26] was 1.12.
With `CO[C@H]1/C=C/O[C@@]2(C)Oc3c(C)c(O)c4c(O)c(c(CNCC5CCOCC5)c(O)c4c3C2=O)NC(=O)/C(C)=C\C=C\[C@H](C)[C@H](O)[C@@H](C)[C@@H](O)[C@@H](C)[C@H](OC(C)=O)[C@@H]1C` the MIC [1] was 0.5 µg/mL (≈ 0.606 µM), the MIC [2] was 0.5 µg/mL (≈ 0.606 µM) and the MIC [3] was 0.5 µg/mL (≈ 0.606 µM). The MIC [4] was 0.25 µg/mL (≈ 0.303 µM), the MIC [5] was 0.25 µg/mL (≈ 0.303 µM) and the solubility [27] was 250 µg/mL (≈ 303 µM). The logP [26] was 2.37.
